Experimental data from EP1123387B1, “MN GENE AND PROTEIN” (INSTITUTE OF VIROLOGY, priority 1998, dated 2000).
Read-outs that look alike come from different tables or passages of the source. Where a SMILES comes first, the peptide text is derived from it.

Columns and labels:
[1] = system: Rat2TK- cells and C33 human cervical carcinoma cells transfected with pMN-HSVtk
[2] = molecular target: T1, epitope of immobilized GST-MN (Homo sapiens, UniProt Q16790); assay: Competition ELISA (peptides binding to the epitope of immobilized GST-MN); details: nonapeptides of 7 + 2 aa
T1 construct: expressed from pGEX-3X-MN containing the cDNA for the MN protein without the signal peptide; made in house; host or cells: bacteria (E. coli XL1-Blue)
Procedure: (§1) ELISA. Purified GST-MN [Zavada et al. (1993), supra] at concentration 10 ng /ml in carbonate buffer pH 9.2 was adsorbed for 3 h in Maxisorb strips (NUNC). After washing and blocking (1 h) with 0.05% Tween 20 in PBS, 50µl/well of the antibody + antigen mixtures were added. […] These mixtures were adsorbed for 1.5 h, followed by washing with Tween-PBS. Bound antibody was detected by antimouse lgG conjugate with peroxidase (SwAM-Px, SEVAC, Prague), diluted 1:1000. In the color reaction OPD (o-phenylenediamine dihydrochloride, Sigma) 1 mg/ml in 0.1 M citrate buffer pH 5.0 was used. To this H2O2 was added to final concentration 0.03%. This system is balanced so as to allow assay for antigen competing for M75 as well as for peptides binding to the epitope of immobilized GST-MN.
MN/CA IX. As an alternative to monoclonal antibodies, we set out to select oligopeptides exerting affinity to M75 epitope as well as to MN/CA IX receptor binding site from a phage display library of random heptapeptides - Ph.D.-7. Our aim was to select phages containing the desired heptapeptides by panning on immobilized peptide SEQ ID NO: 106 and subsequent elution with M75. Eluted phage was multiplied in appropriate bacteria and subjected to 4 more cycles of panning and elution. From the selected phage population, 10 plaques were picked, amplified and the heptapeptide-coding region was sequenced. Only 3 heptapeptides were represented. Those three heptapeptides, after adding alanine on both sides, are the following nonapeptides: […] [SEQ ID NO: 137]; […] [SEQ ID NO: 138]; and […] [SEQ ID NO: 139]. The last heptapeptide, synthesized again with added terminal alanines as nonapeptide […] [SEQ ID NO: 140], was identified by panning on GST-MN and eluted with acetazolamide. This last peptide has affinity to the active site of MN/CA IX carbonic anhydrase. We synthesized these peptides of 7 + 2 aa and tested them in competition ELISA and in cell adhesion inhibition. […] In all of those 4 nonapeptides, the C-terminal […] as amide.

MN/CA IX = MN/CA IX (Homo sapiens, UniProt Q16790); assay: Cell adhesion assay of Example 2 (inhibition of cell attachment to MN/CA IX dots); format: cell-based; details: nonapeptides of 7 + 2 aa
[3] = Tolerance of cell cultures to acetazolamide; format: cell-based, human; details: human, hela cells; confluent cultures, 3 days; read-out: concentration tolerated without any signs of toxicity and without any effect on cell morphology
HeLa = assay: Tolerance of cell cultures to acetazolamide; format: cell-based, human; details: sparse cultures
[4] = Tolerance of cell cultures to acetazolamide; format: cell-based, mouse; details: mouse, nih3t3 cells; confluent cultures, 3 days; read-out: concentration tolerated without any signs of toxicity and without any effect on cell morphology
NIH3T3 cells = assay: Tolerance of cell cultures to acetazolamide; format: cell-based, mouse; details: sparse cultures
[5] = system: NIH3T3 cells freshly transformed with the [pGD.MN + MLV] complex; assay: Effect on morphologic transformation by MN; format: cell-based, mouse; details: 10^-5M, 4 days of incubation
Procedure: Thus, 10^-5M acetazolamide was added to NIH3T3 cells freshly transformed with the [pGD.MN + MLV] complex. After 4 days of incubation, the colonies were fixed and stained. No difference was seen between cells growing in the presence or absence of acetazolamide; both were indistinguishable from correctly transformed NIH3T3 cells. Thus, the enzymatic activity of carbonic anhydrase is not relevant for the transforming activity of MN protein.

MAb M75 = assay: Competition ELISA with M75 (antigen competing for M75); format: binding, mouse; details: for concentration causing 50% inhibition: GST-MN adsorbed, MAb 75 ascites fluid 10^-6; for reactive with the M75 MAb: test not given
Procedure: as §1
Identification of the epitope recognized by Mab M75. Preliminary mapping of M75 epitope employing partial sequences of extracellular parts of MN/CA9 cDNA expressed from bacterial vectors and tested on Western blots located it in PG region. For exact mapping, our strategy was to synthesize partially overlapping oligopeptides of 15-25 aa covering the PG domain and test them in competition ELISA with M75. According to the results, this was followed by a series of 6-12 aa oligopeptides. A major part of the PG domain consists of a 6-fold tandem repeat of 6 aa (aa 61 - 96) [SEQ ID NO: 97]; 4 repeats are identical (GEEDLP) [SEQ ID NO: 98] and 2 contain 2 aa exchanged (SEEDSP [SEQ ID NO: 141] and REEDPP [SEQ ID NO: 142]).

| Compound | activity in competition ELISA [2] | activity in cell adhesion inhibition (MN/CA IX) | reactive with the M75 MAb (MAb M75) | other results |
| --- | --- | --- | --- | --- |
| Nc1nc(O)c2ncn(COC(CO)CO)c2n1 [GVC, ganciclovir] |  |  |  | cells killed [1]: up to 95% |
| CSCC[C@H](NC(=O)[C@H](CCCCN)NC(=O)[C@H](CCCCN)NC(=O)[C@H](C)N)C(=O)N[C@@H](CCCCN)C(=O)N[C@@H](CCCNC(=N)N)C(=O)N[C@@H](CCCNC(=N)N)C(=O)N[C@@H](CCCCN)C(=O)N[C@@H](C)C(N)=O [SEQ ID NO: 137] (H-AKKMKRRKA-NH2) | less active | less active |  |  |
| CC[C@H](C)[C@H](NC(=O)[C@H](C)N)C(=O)N[C@H](C(=O)N[C@@H](Cc1ccccc1)C(=O)N[C@@H](CC(N)=O)C(=O)N[C@@H](C)C(=O)N[C@@H](CCC(N)=O)C(=O)N[C@@H](Cc1ccc(O)cc1)C(=O)N[C@@H](C)C(N)=O)[C@@H](C)O [SEQ ID NO: 138] (H-AITFNAQYA-NH2) | highest activity | highest activity |  |  |
| CC(C)[C@H](NC(=O)[C@@H]1CCCN1C(=O)[C@H](C)NC(=O)[C@H](CO)NC(=O)[C@H](C)NC(=O)[C@H](CO)NC(=O)[C@H](C)N)C(=O)N[C@@H](CO)C(=O)N[C@@H](C)C(N)=O [SEQ ID NO: 139] (H-ASASAPVSA-NH2) | marginally positive | marginally positive only in ELISA |  |  |
| CC(C)C[C@H](NC(=O)[C@@H]1CCCN1C(=O)[C@H](CO)NC(=O)[C@H](CCCNC(=N)N)NC(=O)[C@@H](NC(=O)[C@H](CCC(N)=O)NC(=O)CNC(=O)[C@H](C)N)[C@@H](C)O)C(=O)N[C@@H](C)C(N)=O [SEQ ID NO: 140] (H-AGQTRSPLA-NH2) | inactive | inactive |  |  |
| CC(=O)Nc1nnc(S(N)(=O)=O)s1 [acetazolamide] |  |  |  | MNTC at 72 h [3]: 10 to 1000 µM; cell growth (HeLa; 10^-4M): partial inhibition; cell growth (HeLa; 10^-5M): did not inhibit cell growth; MNTC at 72 h [4]: 10 to 1000 µM; cell growth (NIH3T3 cells; 10^-4M): partial inhibition; cell growth (NIH3T3 cells; 10^-5M): did not inhibit cell growth; difference between transformed cells growing in the presence or absence of the drug [5]: No difference |
| EDPPGEEDLPGEEDLPGEEDLPEVC [SEQ ID NO: 106] |  |  | reactive | concentration causing 50% inhibition (MAb M75; competition ELISA): 1 ng/mL |
| GEEDLPSEEDSPREEDPPGEEDLPGEC [SEQ ID NO: 105] |  |  | reactive | fold less active (than SEQ ID NOS: 104 and 106) (MAb M75; competition ELISA): 1000 x |
| GGSSGEDDPLGEEDLPSEEDSPC [SEQ ID NO: 104] |  |  | reactive | concentration causing 50% inhibition (MAb M75; competition ELISA): 1 ng/mL |
